Laboratory results: PMC13129536 (The Journal of Biological Chemistry, 2026)

Test system: M. tuberculosis Erdman
Experiment: Pathogenic (BSL3) tuberculosis CFU assay
Format: cell-based
Conditions: Mycobacterium tuberculosis, 96 h; for IC50: read-out: IC50 (CFU/mL at 96 hours); for IC90: read-out: IC90 (CFU/mL at 96 hours)

Row | Structure (SMILES) | IC50 | IC90
1 | c1ccc(-c2nc3cc(Cc4ccc5[nH]c(-c6ccccn6)nc5c4)ccc3[nH]2)nc1 [Compound F0850-5995] | ~1.12 µM | 6.64 ± 3.86 µM
2 | C[C@@H](O)[C@H]1C(=O)N2C(C(=O)O)=C(S[C@@H]3CN[C@H](C(=O)N(C)C)C3)[C@H](C)[C@H]12 [Meropenem, meropenem, reference compound] | 0.697 ± 0.11 µg/mL | 1.16 ± 0.255 µg/mL
3 | Cc1ccc(C)c(Nc2nc(NCc3ccccc3)c3ccccc3n2)c1 [Compound F0909-0124] | ~8.97 µM | 
